# Measurements taken from US20250092056A1, “URACIL DERIVATIVES HAVING VIRUS REPLICATION INHIBITORY ACTIVITY AND PHARMACEUTICAL COMPOSITION COMPRISING THE SAME” (Shionogi & Co., Ltd., priority 2022, published 2025).
# Target: Recombinant SARS-CoV-2 3CL Protease (Severe acute respiratory syndrome coronavirus 2 (2019-nCoV) (SARS-CoV-2), UniProt P0DTD1)
# Assay: biochemical
# Format: biochemical
# Conditions: 50% SARS-CoV-2 3CL protease inhibitory concentration; read-out: IC50
row,Structure (SMILES),IC50 [nM]
1,N#CCn1c(N2CC3(CCCO3)C2)c(-c2ccc(F)c(Cl)c2)c(=O)n(-c2cnc3cc(F)ccn23)c1=O [Compound I-152],< 10
2,N#CCn1c(N2CC(F)(C3CC3)C2)c(-c2ccc(F)c(Cl)c2)c(=O)n(-c2cncc(OCF)c2)c1=O [Compound I-347],< 10
3,N#CCn1c(N2CC(c3ncccn3)C2)c(-c2ccc(F)c(Cl)c2)c(=O)n(-c2cncc(Cl)c2)c1=O [Compound I-233],< 10
4,Cc1cncc(-n2c(=O)c(-c3ccc(F)c(Cl)c3)c(-c3ccc(C(N)=O)cc3)n(CC#N)c2=O)c1 [Compound I-273],< 10
5,N#CCn1c(N2CCC(F)(C#N)CC2)c(-c2ccc(F)c(Cl)c2)c(=O)n(-c2cncc(Cl)c2)c1=O [Compound I-305],< 10
6,N#CCn1c(N2CC(O)(C(F)(F)F)C2)c(-c2cc(F)c(F)c(C#N)c2)c(=O)n(-c2cncc(Cl)c2)c1=O [Compound I-367],< 10
7,N#CCn1c(N2CCC(F)(F)CC2)c(-c2ccc(F)c(F)c2)c(=O)n(-c2cncc(Cl)c2)c1=O [Compound I-401],< 10
8,CC1(O)CN(c2c(-c3ccc(F)c(Cl)c3)c(=O)n(-c3cncc(Cl)c3)c(=O)n2CC#N)C1 [Compound I-296],< 10
9,Cn1cnc(Cn2c(=O)c(Cc3cc(F)c(F)c(F)c3)c(-c3cc4ccccc4s3)n(CC#N)c2=O)n1 [Compound I-005],> 100
10,Cc1cncc(-n2c(=O)c(-c3ccc(F)c(Cl)c3)c(Oc3cccc4ccccc34)n(CC#N)c2=O)c1 [Compound I-029],< 10
11,Cc1cncc(-n2c(=O)c(-c3ccc(F)c(Cl)c3)c(N3CC4(C3)CC(F)(F)C4)n(CC#N)c2=O)c1 [Compound I-073],< 10
12,Cc1cncc(-n2c(=O)c(Cc3cc(F)c(F)c(F)c3)c(N3Cc4ccccc4C3)n(CC#N)c2=O)c1 [Compound I-205],0.76
13,N#CCn1c(N2CCC(C(F)F)CC2)c(-c2ccc(F)c(C#N)c2)c(=O)n(-c2cncc(Cl)c2)c1=O [Compound I-398],< 10
14,Cc1cncc(-n2c(=O)c(-c3ccc(F)c(Cl)c3)c(-c3cnc(C)nc3)n(CC#N)c2=O)c1 [Compound I-022],< 10
15,Cc1cnnc(-n2c(=O)c(Cc3cc(F)c(F)c(F)c3)c(N3Cc4ccccc4C3)n(CC#N)c2=O)c1 [Compound I-039],< 10
16,N#CCn1c(N2C[C@@H]3C[C@H]2CO3)c(-c2ccc(F)c(C(F)F)c2)c(=O)n(-c2cncc(Cl)c2)c1=O [Compound I-343],< 10
17,CC1(C)CCN(c2c(-c3ccc(F)c(Cl)c3)c(=O)n(-c3cc4n(c(=O)c3)CCC4)c(=O)n2CC#N)CC1 [Compound I-166],> 100
18,N#CCn1c(N2CCC(C(F)(F)F)CC2)c(-c2ccc(F)c(Cl)c2)c(=O)n(-c2cncc(Cl)c2)c1=O [Compound I-069],< 10
19,CCN1CCN(c2c(-c3ccc(F)c(Cl)c3)c(=O)n(-c3cncc(C)c3)c(=O)n2CC#N)CC1=O [Compound I-224],< 10
20,Cc1cncc(-n2c(=O)c(-c3ccc(F)c(Cl)c3)c(-c3nc4ccccc4o3)n(CC#N)c2=O)c1 [Compound I-132],< 10
21,N#CCn1c(N2CC(O)(c3nccs3)C2)c(-c2ccc(F)c(Cl)c2)c(=O)n(-c2cncc(Cl)c2)c1=O [Compound I-256],< 10
22,N#CCn1c(C2=CCC2)c(-c2ccc(F)c(Cl)c2)c(=O)n(-c2cncc(Cl)c2)c1=O [Compound I-349],10 to 100
23,N#CCn1c(N2CC3(CCOC3)C2)c(Cc2cc(F)c(F)c(F)c2)c(=O)n(-c2cnc3ccc(F)cn23)c1=O [Compound I-129],10 to 100
24,CCOC1CN(c2c(-c3ccc(F)c(Cl)c3)c(=O)n(-c3cncc(C(F)F)n3)c(=O)n2CC#N)C1 [Compound I-418],< 10
25,"C[C@@](O)(CCc1c(-c2ccc(F)c(Cl)c2)c(=O)n(-c2cncc(Cl)c2)c(=O)n1CC#N)C(F)F (single isomer, unassigned) [Compound I-393]",< 10
26,N#CCn1c(N2CC(F)(C3CC3)C2)c(-c2ccc(F)c(Cl)c2)c(=O)n(-c2cncc(F)c2)c1=O [Compound I-300],< 10

# System: SARS-CoV-2
# Assay: Cytopathic effect (CPE) suppression effect confirmation test using HEK293T/ACE2-TMPRSS2 cells
# Format: cell-based
# Conditions: Severe acute respiratory syndrome coronavirus 2, HEK-293T, 72 h, read-out: EC50 (50% SARS-CoV-2 infected cell death inhibitory concentration), HEK293T/ACE2-TMPRSS2 cells, CPE suppression, CellTiter-Glo 2.0 after 3 days culture
row,Structure (SMILES),EC50 [nM]
1,Cc1cncc(-n2c(=O)c(Cc3cc(F)c(F)c(F)c3)c(N3Cc4ccccc4C3)n(CC#N)c2=O)c1 [Compound I-205],5

# Same assay, conditions: Severe acute respiratory syndrome coronavirus 2, HEK-293T, 72 h, read-out: EC50 (50% SARS-CoV-2 infected cell death inhibitory concentration), class, HEK293T/ACE2-TMPRSS2 cells, CPE suppression, CellTiter-Glo 2.0 after 3 days culture
row,Structure (SMILES),EC50 [nM]
1,N#CCn1c(N2CC3(CCCO3)C2)c(-c2ccc(F)c(Cl)c2)c(=O)n(-c2cnc3cc(F)ccn23)c1=O [Compound I-152],< 100
2,Cn1cnc(Cn2c(=O)c(Cc3cc(F)c(F)c(F)c3)c(-c3cc4ccccc4s3)n(CC#N)c2=O)n1 [Compound I-005],100 to 1000
3,Cc1cncc(-n2c(=O)c(-c3ccc(F)c(Cl)c3)c(Oc3cccc4ccccc34)n(CC#N)c2=O)c1 [Compound I-029],< 100
4,Cc1cncc(-n2c(=O)c(-c3ccc(F)c(Cl)c3)c(N3CC4(C3)CC(F)(F)C4)n(CC#N)c2=O)c1 [Compound I-073],< 100
5,Cc1cncc(-n2c(=O)c(-c3ccc(F)c(Cl)c3)c(-c3cnc(C)nc3)n(CC#N)c2=O)c1 [Compound I-022],< 100
6,Cc1cnnc(-n2c(=O)c(Cc3cc(F)c(F)c(F)c3)c(N3Cc4ccccc4C3)n(CC#N)c2=O)c1 [Compound I-039],< 100
7,CC1(C)CCN(c2c(-c3ccc(F)c(Cl)c3)c(=O)n(-c3cc4n(c(=O)c3)CCC4)c(=O)n2CC#N)CC1 [Compound I-166],1000 to 5000
8,N#CCn1c(N2CCC(C(F)(F)F)CC2)c(-c2ccc(F)c(Cl)c2)c(=O)n(-c2cncc(Cl)c2)c1=O [Compound I-069],< 100
9,Cc1cncc(-n2c(=O)c(-c3ccc(F)c(Cl)c3)c(-c3nc4ccccc4o3)n(CC#N)c2=O)c1 [Compound I-132],< 100

# Same assay, conditions: Severe acute respiratory syndrome coronavirus 2, HEK-293T, 72 h; HEK293T/ACE2-TMPRSS2 cells, CPE suppression, CellTiter-Glo 2.0 after 3 days culture; read-out: EC50 (50% SARS-CoV-2 infected cell death inhibitory concentration), class
row,Structure (SMILES),EC50 [nM]
1,N#CCn1c(N2CC3(CCOC3)C2)c(Cc2cc(F)c(F)c(F)c2)c(=O)n(-c2cnc3ccc(F)cn23)c1=O [Compound I-129],100 to 1000

# Same assay, conditions: Severe acute respiratory syndrome coronavirus 2, HEK-293T; 50% SARS-CoV-2 infected cell death inhibitory concentration; HEK293T/ACE2-TMPRSS2 cells; read-out: EC50
row,Structure (SMILES),EC50 [nM]
1,N#CCn1c(N2CC(F)(C3CC3)C2)c(-c2ccc(F)c(Cl)c2)c(=O)n(-c2cncc(OCF)c2)c1=O [Compound I-347],< 100
2,N#CCn1c(N2CC(c3ncccn3)C2)c(-c2ccc(F)c(Cl)c2)c(=O)n(-c2cncc(Cl)c2)c1=O [Compound I-233],< 100
3,Cc1cncc(-n2c(=O)c(-c3ccc(F)c(Cl)c3)c(-c3ccc(C(N)=O)cc3)n(CC#N)c2=O)c1 [Compound I-273],< 100
4,N#CCn1c(N2CCC(F)(C#N)CC2)c(-c2ccc(F)c(Cl)c2)c(=O)n(-c2cncc(Cl)c2)c1=O [Compound I-305],< 100
5,N#CCn1c(N2CC(O)(C(F)(F)F)C2)c(-c2cc(F)c(F)c(C#N)c2)c(=O)n(-c2cncc(Cl)c2)c1=O [Compound I-367],< 100
6,N#CCn1c(N2CCC(F)(F)CC2)c(-c2ccc(F)c(F)c2)c(=O)n(-c2cncc(Cl)c2)c1=O [Compound I-401],< 100
7,CC1(O)CN(c2c(-c3ccc(F)c(Cl)c3)c(=O)n(-c3cncc(Cl)c3)c(=O)n2CC#N)C1 [Compound I-296],< 100
8,N#CCn1c(N2CCC(C(F)F)CC2)c(-c2ccc(F)c(C#N)c2)c(=O)n(-c2cncc(Cl)c2)c1=O [Compound I-398],< 100
9,N#CCn1c(N2C[C@@H]3C[C@H]2CO3)c(-c2ccc(F)c(C(F)F)c2)c(=O)n(-c2cncc(Cl)c2)c1=O [Compound I-343],< 100
10,CCN1CCN(c2c(-c3ccc(F)c(Cl)c3)c(=O)n(-c3cncc(C)c3)c(=O)n2CC#N)CC1=O [Compound I-224],< 100
11,N#CCn1c(N2CC(O)(c3nccs3)C2)c(-c2ccc(F)c(Cl)c2)c(=O)n(-c2cncc(Cl)c2)c1=O [Compound I-256],< 100
12,N#CCn1c(C2=CCC2)c(-c2ccc(F)c(Cl)c2)c(=O)n(-c2cncc(Cl)c2)c1=O [Compound I-349],< 100
13,CCOC1CN(c2c(-c3ccc(F)c(Cl)c3)c(=O)n(-c3cncc(C(F)F)n3)c(=O)n2CC#N)C1 [Compound I-418],< 100
14,"C[C@@](O)(CCc1c(-c2ccc(F)c(Cl)c2)c(=O)n(-c2cncc(Cl)c2)c(=O)n1CC#N)C(F)F (single isomer, unassigned) [Compound I-393]",< 100
15,N#CCn1c(N2CC(F)(C3CC3)C2)c(-c2ccc(F)c(Cl)c2)c(=O)n(-c2cncc(F)c2)c1=O [Compound I-300],< 100
